Test results as given in patent US20210363152A1, “AMINOAZINE AMIDES” (Hoffmann-La Roche Inc., priority 2018, published 2021).

Each compound was assayed against T1, Autotaxin enzyme (ATX) (Homo sapiens, UniProt Q13822) (assay: In vitro ATX assay (enzymatic ATX inhibition, LPC 14:0 substrate, choline oxidase/HRP absorbance readout)). Details: 0.3 mM LPC 14:0, 37° C., 4 hours, absorbance 555 nm.
T1 construct: purchased Echelon Biosciences, Inc. E-4000
Format: biochemical
Protocol: • Assay buffer: 100 mM Tris-HCl, pH 9.0, 500 mM NaCl, 5 mM MgCl2, 30 μM CoCl2, 0.05% Triton X-100 • Assay buffer II: 4.5 mM 4-AAP, 2.7 mM TOOS, 21.2 U/mL HRP, 3 U/mL CO, In 50 mM Tris-HCl pH 8.0, 4.5 mM MgCl2
A compound preparation plate (Nunc 249944) was prepared by adding 30 mM stock solution (in DMSO) of test compound and performing a serial full-log dilution down to 30 nM. Two μL/well were transferred from the first compound prep plate to a compound dilution plate (Corning, 3641) and 198 μL assay buffer I was added for a […].
A 10 ng/mL solution of ATX was prepared by diluting in assay buffer I, and 80 μL/well were added to the assay plate (Corning, 3641); negative control wells contained 80 μL/well assay buffer I only (no ATX). Ten μL/well from the compound dilution plate (containing serially diluted test compound or DMSO) were added to the assay plate, which was then incubated at 37° C. for 15 minutes. A solution of LPC 14:0 was prepared in assay buffer I at 3 mM and 10 μl/well were added to the assay plate, for a final concentration of 0.3 mM LPC, and returned to 37° C. incubator for 4 hours. After 4 hour incubation, 100 μL/well of assay buffer II was added to all wells of the assay plate. The plate was incubated at RT for 15 minutes, prior to reading on FlexStation in absorbance mode, 555 nm. Results in the enzymatic ATX inhibition assay are provided for compounds of formula (I). An IC50 value of “A” is less than 100 nM, “B” is equal to or greater than 100 nM but less than 1 μM, “C” is equal to or greater than 1 μM.

SMILES	IC50 [nM]
COC[C@H]1CCCN1C(=O)c1cnc(NCc2cc(OC(F)(F)F)cc(C3CC3)c2)nc1 [Example 95, (R)-(2-((3-cyclopropyl-5-(trifluoromethxoy)benzyl)ami-no)pyrimidin-5-yl)(2-(methoxymethyl)pyrrolidin-1-yl)methanone]	100 to 1000
O=C(c1cnc(NCc2cc(OC(F)(F)F)cc(C3CC3)c2)nc1)N1CCCC12COC2 [Example 96, (2-((3-cyclopropyl-5-(trifluoromethoxy)benzyl)ami-no)pyrimidin-5-yl)(2-oxa-5-azaspiro[3.4]octan-5-yl)methanone]	< 100
O=C(c1cnc(NCc2cc(OC(F)(F)F)cc(C3CC3)c2)nc1)N1CCC12CCOC2 (stereo not drawn) [Example 97, (2-((3-cyclopropyl-5-(trifluoromethoxy)benzyl)ami-no)pyrimidin-5-yl)(6-oxa-1-azaspiro[3.4]octan-1-yl)methanone]	< 100
O=C(c1cnc(NCc2cc(OC(F)(F)F)cc(C3CC3)c2)nc1)N1CCc2ccncc21 [Example 98, (2-((3-cyclopropyl-5-(trifluoromethoxy)benzyl)ami-no)pyrimidin-5-yl)(2,3-dihydro-1H-pyrrolo[2,3-c]pyridin-1-yl)methanone]	< 100
COCC1CN(C(=O)c2cnc(NCc3cc(OC(F)(F)F)cc(C4CC4)c3)nc2)C1 [Example 99, (2-((3-cyclopropyl-5-(trifluoromethoxy)benzyl)ami-no)pyrimidin-5-yl)(3-(methoxymethyl)azetidin-1-yl)methanone]	100 to 1000
CN(C)CC1CN(C(=O)c2cnc(NCc3cc(OC(F)(F)F)cc(C4CC4)c3)nc2)C1 [Example 100, (2-((3-cyclopropyl-5-(trifluoromethoxy)benzyl)ami-no)pyrimidin-5-yl)(3-((dimethylamino)methyl)azeti-din-1-yl)methanone]	100 to 1000
O=C(c1cnc(NCc2cc(OC(F)(F)F)cc(C3CC3)c2)nc1)N1CCC12CCOCC2 [Example 101, (2-((3-cyclopropyl-5-(trifluoromethoxy)benzyl)ami-no)pyrimidin-5-yl)(7-oxa-1-azaspiro[3.5]nonan-1-yl)methanone]	< 100
O=C(c1cnc(NCc2cc(OC(F)(F)F)cc(C3CC3)c2)nc1)N1CC2(CCS2(=O)=O)C1 [Example 102, (2-((3-cyclopropyl-5-(trifluoromethoxy)benzyl)ami-no)pyrimidin-5-yl)(1,1-dioxido-1-thia-6-azaspiro[3.3]heptan-6-y)methanone]	100 to 1000
COC[C@H]1CCN1C(=O)c1cnc(NCc2cc(OC(F)(F)F)cc(C3CC3)c2)nc1 [Example 103, (R)-(2-((3-cyclopropyl-5-(trifluoromethoxy)benzyl)ami-no)pyrimidin-5-yl)(2-(methoxymethyl)azetidin-1-yl)methanone]	< 100
COC[C@@H]1CCN1C(=O)c1cnc(NCc2cc(OC(F)(F)F)cc(C3CC3)c2)nc1 [Example 104, (S)-(2-((3-cyclopropyl-5-(trifluoromethoxy)benzyl)ami-no)pyrimidin-5-yl)(2-(methoxymethyl)azetidin-1-yl)methanone]	< 100
O=C(c1cnc(NCc2cc(OC(F)(F)F)cc(C3CC3)c2)nc1)N1CC2(CCO2)C1 [Example 105, (2-((3-cyclopropyl-5-(trifluoromethoxy)benzyl)ami-no)pyrimidin-5-yl)(1-oxa-6-azaspiro[3.3]heptan-6-yl)methanone]	100 to 1000
O=C(c1cnc(NCc2cc(OC(F)(F)F)cc(C3CC3)c2)nc1)N1CC2(C1)CS(=O)(=O)C2 [Example 106, (2-((3-cyclopropyl-5-(trifluoromethoxy)benzyl)ami-no)pyrimidin-5-yl)(2,2-dioxido-2-thia-6-azaspiro[3.3]heptan-6-yl)methanone]	100 to 1000
O=C(c1cnc(NCc2cc(OC(F)(F)F)cc(C3CC3)c2)nc1)N1CCC12CS(=O)(=O)C2 [Example 107, (2-((3-cyclopropyl-5-(trifluoromethoxy)benzyl)ami-no)pyrimidin-5-yl)(6,6-dioxido-6-thia-1-azaspiro[3.3]heptan-1-yl)-methanone]	< 100
O=C(c1cnc(NCc2cc(OC(F)(F)F)cc(C3CC3)c2)nc1)N1CCC12CCCOC2 (stereo not drawn) [Example 108, (2-((3-cyclopropyl-5-(trifluoromethoxy)benzyl)ami-no)pyrimidin-5-yl)(6-oxa-1-azaspiro[3.5]nonan-1-yl)-methanone]	< 100
COC1CN(C(=O)c2cnc(NCc3cc(OC(F)(F)F)cc(C4CC4)c3)nc2)C1 [Example 109, (2-((3-cyclopropyl-5-(trifluoromethoxy)benzyl)ami-no)pyrimidin-5-yl)(3-methoxyazetidin-1-yl)-methanone]	< 100
CN(C)C1CN(C(=O)c2cnc(NCc3cc(OC(F)(F)F)cc(C4CC4)c3)nc2)C1 [Example 110, (2-((3-cyclopropyl-5-(trifluoromethoxy)benzyl)ami-no)pyrimidin-5-yl)(3-(dimethylamino)azetidin-1-yl)methanone]	100 to 1000

Continued, values first:

IC50 [nM]	SMILES
< 100	O=C(c1cnc(NCc2cc(OC(F)(F)F)cc(C3CC3)c2)nc1)N1CCC2COCC21 (stereo not drawn) [Example 111, (2-((3-cyclopropyl-5-(trifluoromethoxy)benzyl)ami-no)pyrimidin-5-yl)(hexahydro-1H-furo[3,4-b]pyrrol-1-yl)methanone]
< 100	CN1CCC2(CC1)CCN2C(=O)c1cnc(NCc2cc(OC(F)(F)F)cc(C3CC3)c2)nc1 [Example 112, (2-((3-cyclopropyl-5-(trifluoromethoxy)benzyl)ami-no)pyrimidin-5-yl)(7-methyl-1,7-diazaspiro[3.5]nonan-1-yl)methanone]
< 100	O=C(c1cnc(NCc2cc(OC(F)(F)F)cc(C3CC3)c2)nc1)N1CCC1C(F)F (stereo not drawn) [Example 113, (2-((3-cyclopropyl-5-(trifluoromethoxy)benzyl)ami-no)pyrimidin-5-yl)(2-(difluoromethyl)azetidin-1-yl)methanone]
100 to 1000	O=C(c1cnc(NCc2cc(OC(F)(F)F)cc(C3CC3)c2)nc1)N1CCC1C(F)(F)F (stereo not drawn) [Example 114, (2-((3-cyclopropyl-5-(trifluoromethoxy)benzyl)ami-no)pyrimidin-5-yl)(2-(trifluoromethyl)azetidin-1-yl)methanone]
< 100	CC(C)(O)C1CCN1C(=O)c1cnc(NCc2cc(OC(F)(F)F)cc(C3CC3)c2)nc1 (stereo not drawn) [Example 115, (2-((3-cyclopropyl-5-(trifluoromethoxy)benzyl)ami-no)pyrimidin-5-yl)(2-(2-hydroxypropan-2-yl)azetidin-1-yl)methanone]
< 100	CCc1cc(CNc2ncc(C(=O)N3CCC34COC4)cn2)cc(OC(F)(F)F)c1 [Example 123, (2-((3-Ethyl-5-(trifluoromethoxy)benzyl)amino)pyrimidin-5-yl)(6-oxa-1-azaspiro[3.3]heptan-1-yl)methanone]
100 to 1000	Cc1ccc2c(c1)CC(Nc1ncc(C(=O)N3CCC34COC4)cn1)C2 (stereo not drawn) [Example 124, (2-((5-Methyl-2,3-dihydro-1H-inden-2-yl)amino)pyrimidin-5-yl)(6-oxa-1-azaspiro[3.3]heptan-1-yl)methanone]
< 100	O=C(c1cnc(NC2Cc3ccc(C4CC4)cc3C2)nc1)N1CCC12COC2 (stereo not drawn) [Example 125, (2-((5-Cyclopropyl-2,3-dihydro-1H-inden-2-yl)amino)pyrimidin-5-yl)(6-oxa-1-azaspiro[3.3]heptan-1-yl)methanone]
100 to 1000	CCc1ccc2c(c1)CC(Nc1ncc(C(=O)N3CCC34COC4)cn1)C2 (stereo not drawn) [Example 126, (2-((5-Ethyl-2,3-dihydro-1H-inden-2-yl)amino)pyrimidin-5-yl) (6-oxa-1-azaspiro[3.3]heptan-1-yl)methanone]
100 to 1000	O=C(c1cnc(NC2Cc3cc(Br)c(Br)cc3C2)nc1)N1CCC12COC2 [Example 127, (2-((5,6-Dibromo-2,3-dihydro-1H-inden-2-yl)amino)pyrimidin-5-yl)(6-oxa-1-azaspiro[3.3]heptan-1-yl)methanone]
≥ 1000	Cc1cc2c(cc1C)CC(Nc1ncc(C(=O)N3CCC34COC4)cn1)C2 [Example 128, (2-((5,6-Dimethyl-2,3-dihydro-1H-inden-2-yl)amino)pyrimidin-5-yl)(6-oxa-1-azaspiro[3.3]heptan-1-yl)methanone]
< 100	O=C(c1cnc(N[C@@H]2Cc3ccc(Cl)cc3C2)nc1)N1CCC12COC2 [Example 129, (R)-(2-((5-Chloro-2,3-dihydro-1H-inden-2-yl)amino)pyrimidin-5-yl)(6-oxa-1-azaspiro[3.3]heptan-1-yl)methanone]
100 to 1000	O=C(c1cnc(N[C@H]2Cc3ccc(Cl)cc3C2)nc1)N1CCC12COC2 [Example 130, (S)-(2-((5-Chloro-2,3-dihydro-1H-inden-2-yl)amino)pyrimidin-5-yl)(6-oxa-1-azaspiro[3.3]heptan-1-yl)methanone]
< 100	CC(C)(O)C1CCN1C(=O)c1cnc(N[C@@H]2Cc3ccc(Cl)cc3C2)nc1 (stereo partly drawn) [Example 131, (2-(((R)-5-Chloro-2,3-dihydro-1H-inden-2-yl)amino)pyrimidin-5-yl)(2-(2-hydroxypropan-2-yl)azetidin-1-yl)methanone]
